Laboratory results published in the supplement of paper PMC11208160.

Test: recombinant UMI read abundance after kanamycin selection (control-corrected) (log10(CPM+1)); higher = more efficient recombination; extreme values may be limits of the assay; sequences stand for … in AGTGCAGAGAAAATCGGCCAGTTTTCTCTGCCTGCAGTCCGCATGCCGTGGGACCCCTTGGGTTCTAACCTGTTGCCTAGATTTATGCAGCGGACTGCCTTTCTCCCAAAGTGATAAACCGG…AGGTTGGTTTCACT; site = the 11-nt donor
Procedure, shortened: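 In Escherichia coli, a pool of donor and donor-binding-loop pairs, each with a 12-nt UMI, was tested for the IS621 bridge recombinase. Plating was on IPTG (0.07 mM) plus kanamycin, or without selection, in two replicates. Recombinant UMIs were amplified by PCR across the donor–target junction and sequenced, and counts were reported as log10(CPM+1) after averaging and control-derived scaling.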
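Note: IS621 bridge recombinase in Escherichia coli cells against a fixed T5 target plasmid.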

Row | Sequence | recombinant UMI read abundance (log10)
1 | CGATAGACATGGACCGGTTTTCCCGGTAATCCGTATTTGTT (site CGATTGACTAA) | 0.00602
2 | CGATCAACATGGACCGGTTTTCCCGGTAATCCGTATTTGCT (site CGATCAACTAG) | 2.27
3 | CGATCAACATGGACCGGTTTTCCCGGTAATCCGTATTTGCT (site CGATCACCTAG) | 0
4 | CGATCAACATGGACCGGTTTTCCCGGTAATCCGTATTTGCT (site CGATCAGCTAG) | 0
5 | CGATCAACATGGACCGGTTTTCCCGGTAATCCGTATTTGCT (site CGATCATCTAG) | 0
6 | CGATCATCATGGACCGGTTTTCCCGGTAATCCGTATTTGAT (site CGATCATCTAA) | 0
7 | CGATCATCATGGACCGGTTTTCCCGGTAATCCGTATTTGAT (site CGATCATCTAC) | 0.213
8 | CGATCATCATGGACCGGTTTTCCCGGTAATCCGTATTTGAT (site CGATCATCTAG) | 0
9 | CGATCATCATGGACCGGTTTTCCCGGTAATCCGTATTTGAT (site CGATCATCTAT) | 0.727
10 | CGATCATCATGGACCGGTTTTCCCGGTAATCCGTATTTGCC (site CGATCATCTAG) | 0
11 | CGATCATCATGGACCGGTTTTCCCGGTAATCCGTATTTGCC (site CGATCATCTCG) | 0.00333
12 | CGATCATCATGGACCGGTTTTCCCGGTAATCCGTATTTGCC (site CGATCATCTGG) | 0
13 | CGATCATCATGGACCGGTTTTCCCGGTAATCCGTATTTGCC (site CGATCATCTTG) | 0
14 | CGATCATCATGGACCGGTTTTCCCGGTAATCCGTATTTGCG (site CGATCATCTAG) | 0
15 | CGATCATCATGGACCGGTTTTCCCGGTAATCCGTATTTGCG (site CGATCATCTCG) | 2.32
16 | CGATCATCATGGACCGGTTTTCCCGGTAATCCGTATTTGCG (site CGATCATCTGG) | 0
17 | CGATCATCATGGACCGGTTTTCCCGGTAATCCGTATTTGCG (site CGATCATCTTG) | 0.00387
18 | CGATCCCCATGGACCGGTTTTCCCGGTAATCCGTATTTGGG (site CGATCCCCTCC) | 0.00829
19 | CGATCCTCATGGACCGGTTTTCCCGGTAATCCGTATTTGGT (site CGATCATCTAG) | 0

Row | Sequence | recombinant UMI read abundance (log10)
20 | CGATCCTCATGGACCGGTTTTCCCGGTAATCCGTATTTGGT (site CGATCCTCTAC) | 1.74
21 | CGATCGACATGGACCGGTTTTCCCGGTAATCCGTATTTGGT (site CGATCGACTAA) | 0.276
22 | CGATCGACATGGACCGGTTTTCCCGGTAATCCGTATTTGGT (site CGATCGACTAC) | 0.733
23 | CGATCGACATGGACCGGTTTTCCCGGTAATCCGTATTTGGT (site CGATCGACTAG) | 0
24 | CGATCGACATGGACCGGTTTTCCCGGTAATCCGTATTTGGT (site CGATCGACTAT) | 1.46
25 | CGATCGACATGGACCGGTTTTCCCGGTAATCCGTATTTGTA (site CGATCGACTAA) | 0
26 | CGATCGACATGGACCGGTTTTCCCGGTAATCCGTATTTGTA (site CGATCGACTCA) | 0.0107
27 | CGATCGACATGGACCGGTTTTCCCGGTAATCCGTATTTGTA (site CGATCGACTGA) | 0
28 | CGATCGACATGGACCGGTTTTCCCGGTAATCCGTATTTGTA (site CGATCGACTTA) | 1.19
29 | CGATCGTCATGGACCGGTTTTCCCGGTAATCCGTATTTGAT (site CGATCATCTAG) | 0.00648
30 | CGATCGTCATGGACCGGTTTTCCCGGTAATCCGTATTTGAT (site CGATCGTCTAT) | 0.972
31 | CGATGATCATGGACCGGTTTTCCCGGTAATCCGTATTTGAG (site CGATGATCTCT) | 3.16
32 | CGATGATCATGGACCGGTTTTCCCGGTAATCCGTATTTGCC (site CGATCATCTAG) | 0
33 | CGATGATCATGGACCGGTTTTCCCGGTAATCCGTATTTGCC (site CGATGATCTGG) | 2
34 | CGATGCGCATGGACCGGTTTTCCCGGTAATCCGTATTTGAT (site CGATGCGCTAT) | 2.43
35 | CGATGCTCATGGACCGGTTTTCCCGGTAATCCGTATTTGAA (site CAATGCTCTTT) | 0.249
36 | CGATGCTCATGGACCGGTTTTCCCGGTAATCCGTATTTGAA (site CCATGCTCTTT) | 0.00345
37 | CGATGCTCATGGACCGGTTTTCCCGGTAATCCGTATTTGAA (site CGATGCTCTTT) | 2.6
38 | CGATGCTCATGGACCGGTTTTCCCGGTAATCCGTATTTGAA (site CTATGCTCTTT) | 0.0185

Row | Sequence | recombinant UMI read abundance (log10)
39 | CGATGTCCATGGACCGGTTTTCCCGGTAATCCGTATTTGGA (site CGATGTCCTTC) | 0.0178
40 | CGATTCGCATGGACCGGTTTTCCCGGTAATCCGTATTTGCT (site CGATTCGCTAG) | 2.12
41 | CGATTGACATGGACCGGTTTTCCCGGTAATCCGTATTTGTT (site CGATAGACTAA) | 0.0285
42 | CGATTGACATGGACCGGTTTTCCCGGTAATCCGTATTTGTT (site CGATCGACTAA) | 0.016
43 | CGATTGACATGGACCGGTTTTCCCGGTAATCCGTATTTGTT (site CGATGGACTAA) | 0.00746
44 | CGATTGACATGGACCGGTTTTCCCGGTAATCCGTATTTGTT (site CGATTGACTAA) | 1.24
45 | CGATTTTCATGGACCGGTTTTCCCGGTAATCCGTATTTGCT (site CGATCATCTAG) | 0
46 | CGATTTTCATGGACCGGTTTTCCCGGTAATCCGTATTTGCT (site CGATTTTCTAG) | 1.29
47 | CGCAAGACATGGACCGGTTTTCCCGGTAATCCGTATTTGCA (site CGCAAGACTTG) | 1.79
48 | CGCAATACATGGACCGGTTTTCCCGGTAATCCGTATTTGGT (site CGCAATACTAC) | 1.25
49 | CGCAATCCATGGACCGGTTTTCCCGGTAATCCGTATTTGTT (site CGAAATCCTAA) | 0.00301
50 | CGCAATCCATGGACCGGTTTTCCCGGTAATCCGTATTTGTT (site CGCAATCCTAA) | 0.698
51 | CGCAATCCATGGACCGGTTTTCCCGGTAATCCGTATTTGTT (site CGGAATCCTAA) | 0
52 | CGCAATCCATGGACCGGTTTTCCCGGTAATCCGTATTTGTT (site CGTAATCCTAA) | 0
53 | CGCACCCCATGGACCGGTTTTCCCGGTAATCCGTATTTGAC (site CGCACCCCTGT) | 1.43
54 | CGCACGACATGGACCGGTTTTCCCGGTAATCCGTATTTGCC (site CGCACGACTGG) | 1.95
55 | CGCAGAACATGGACCGGTTTTCCCGGTAATCCGTATTTGCA (site CGCAGAACTTG) | 1.37
56 | CGCAGAACATGGACCGGTTTTCCCGGTAATCCGTATTTGTA (site CGCAGAACTTA) | 2.19
57 | CGCATCCCATGGACCGGTTTTCCCGGTAATCCGTATTTGGC (site CGCATCCCTGC) | 1.75
